Source: PMC7662321, “Andrographolide and Its 14-Aryloxy Analogues Inhibit Zika and Dengue Virus Infection” (Molecules, 2020)

What was measured:
[1] = MTT cytotoxicity assay in BHK-21 cells; type: cell-based; settings: hamster, BHK-21 cells (baby hamster kidney), 24 h post-treatment
Procedure: (§1) Cytotoxicity of each compound towards cells for four selected cell lines in the range of 1 to 500 µM was evaluated using the MTT (3-(4,5-dimethylthiazol-2-yl)-2,5-diphenyltetrazolium bromide) assay at 24 h post-treatment, in parallel with control and vehicle-treated cells (0.1% dimethyl sulfoxide (DMSO)). The 50% cytotoxic concentration (CC50) values calculated from the dose-response curve (Supplementary Figures S2–S5) are shown in Table 1. Overall, a range of cytotoxicities were seen from the four compounds across the […]. The most cytotoxic combination was ZAD-1 and BHK-21 cells, while the least cytotoxic combination was andrographolide and BHK-21 cells (Table 1).
(§2) A549 cells were cultured in ninety-six-well tissue culture plates under standard conditions until the cells reached 90% confluence. The cell culture medium was removed and then cells were incubated with various concentrations of andrographolide (1–100 μM) diluted in complete medium with FBS prior to being cultured for 24 h under standard conditions before analysis using either the Vybrant MTT Cell proliferation assay kit (V13154, Invitrogen) or the alamarBlue (Thermo Fischer Scientific, Waltham, MA, USA) assay kit according to the manufacturers recommendations. Values were determined from 8 (MTT assay) or 3 (alamarBlue) independent replicates. Negative controls (only media and media with 0.1% DMSO) and positive controls (5% DMSO) were included. To determine cell number, cell cultures were trypsinized by the addition of 0.25% Trypsin/0.1% ethylelediaminetetraacetic acid (EDTA) for 3 min and then cell suspensions were diluted with 0.4% trypan blue solution. Cells were counted using a hemocytometer. Cell morphology was additionally observed under an inverted microscope after 24 h treatment with various concentrations of each compound.
(§3) Figu re S2. Cytotoxicity of ZAD -1 (A), ZA D-2 (B), ZA D-3 (C), and andro grapholide (D) to BHK- 21 (baby hamster kidney) cells. BHK- 21 cells were incubated with various concentrations of each compound for 24 hrs followed by MTT cell viability assay. The experiment was undertaken independently in 4 replicates.
(§4) DMSO at the same concentrations was used as a control. 10% ethanol, PBS, and milli- Q water were used as a positive control of cell death. The bars show mean ± SD. […]

[2] = MTT cytotoxicity assay in Vero cells; type: cell-based; settings: African green monkey, Vero cells (monkey kidney), 24 h post-treatment
Procedure: as §1, §2
Figu re S3. Cytotoxicity of ZAD -1 (A), ZA D-2 (B), ZA D-3 (C), and andro grapholide (D) to Ve r o (monkey kidney) cells. Ve r o cells were incubated with various concentrations of each compound for 24 hrs followed by MTT cell viability assay. The experiment was undertaken independently in 4 replicates. DMSO at the same concentrations was used as a control. 10% ethanol, PBS, and milli- Q water were used as a positive control of cell death. The bars show mean ± SD. […]

[3] = MTT cytotoxicity assay in A549 cells; type: cell-based; settings: human, A549 cells (human lung carcinoma), 24 h post-treatment
Procedure: as §1, §2
as §3, with “S4.” for “S2.”, “A549 (human lung carcinoma)” for “BHK- 21 (baby hamster kidney)”, “A549” for “BHK- 21”
as §4

[4] = MTT cytotoxicity assay in HEK293T/17 cells; type: cell-based; settings: human, HEK293T/17 cells (human embryonic kidney), 24 h post-treatment
Procedure: as §1, §2
Figu re S5. Cytotoxicity of ZAD -1 (A), ZA D-2 (B), ZA D-3 (C), and andro grapholide (D) to HEK293T/17 (human embryonic kidney) cells.
HEK293T/17 cells were incubated with various concentrations of each compound for 24 hrs followed by MTT cell viability assay. The experiment was undertaken independently in 4 replicates. DMSO at the same concentrations was used as a control.
10% ethanol, PBS, and milli- Q water were used as a positive control of cell death. […]

ZIKV = experiment: Percentage of ZIKV infection of A549 cells by flow cytometry; type: cell-based, Zika virus; settings: A549, MOI 5, 10 and 25 µM, 24 h, vs vehicle
Procedure: To confirm the effects of andrographolide and the andrographolide analogues on ZIKV infection, A549 cells were infected with ZIKV at MOI of 5 for 2 h, and subsequently treated with the compounds at concentrations of 10 and 25 μM or with vehicle for 24 h. The cells were harvested for determination of the percentage of infection by flow cytometry, while the supernatants were collected for determination of viral titer by standard plaque assay.
HEK293T/17 or A549 cells were cultured in six-well plates under standard conditions until the cells reached 80% confluence. HEK293T/17 cells were infected with DENV 2, while A549 cells were infected with ZIKV Thai strain at MOI 5 for 2 h at 37 °C and 5% CO2 in culture medium without FBS. Mock infection was undertaken in parallel. After the infection period, the medium was removed and replaced with complete medium (including FBS) containing 0.1% DMSO (no treatment control) or the appropriate concentration of each compound and cells were again incubated under standard conditions. At 24 h post-treatment, cells were harvested for determination of effects of compounds on percentage of infection and supernatant was collected for determination of viral productivity. All experiments were undertaken independently in triplicate with duplicate plaque assay.
Mock- or viral-infected cells (with or without compound treatment) were harvested at an appropriate time point then incubated with 10% normal goat serum (NGS; Gibco Invitrogen) in PBS-immunofluorescence assay (IFA) buffer on ice for 30 min. The cells were washed with 800 µL of 1% BSA/PBS-IFA and fixed with 200 µL of 4% paraformaldehyde in PBS-IFA at room temperature in the dark for 20 min. After washing with 800 µL of 1% BSA/PBS-IFA, cells were permeabilized with 200 µL of 0.2% Triton X-100 in PBS-IFA for 10 min at room temperature in the dark. Subsequently, the cells were washed with 800 µL of 1% BSA/PBS-IFA followed by overnight incubation with 50 µL of primary antibody (1:150 dilution of pan-specific anti-dengue virus E protein antibody HB114 for DENV and 1:2 dilution of anti-flavivirus antibody HB112 for ZIKV). After washing twice with 800 µL of 1% BSA/PBS-IFA, the cells were incubated with 50 µL of a goat anti-mouse IgG conjugated with fluorescein isothiocyanate (FITC; KPL, Guilford, UK) diluted 1:40 with 1% BSA/PBS-IFA at room temperature in the dark for 1 h. The cells were washed twice with 800 µL of 1% BSA/PBS-IFA and resuspended in 100 µL of PBS-IFA. The fluorescence signal was analyzed by flow cytometry on a BD FACalibur cytometer (Becton Dickinson, BD Biosciences, San Jose, CA, USA) using CellQuest™ software (Version 6). All experiments were undertaken independently in triplicate. All raw flow cytometry data plots are provided in Supplementary Figures S13–S19.

DENV 2 = experiment: Percentage of DENV 2 infection of HEK293T/17 cells by flow cytometry; type: cell-based, dengue virus; settings: HEK293T/17, MOI 5, 10 µM, 24 h; exception to the significant reduction
Procedure: The effects of the compounds on DENV-2 infection were evaluated using HEK293T/17 as host cells at MOI of 5. The cells were infected with DENV 2 for 2 h and then the cells were incubated with the compounds at non-cytotoxic (or morphology altering) concentrations of 10 and 25 μM of ZAD-1 and ZAD-3, or 25 and 50 μM of ZAD-2, or 50 and 75 μM of andrographolide or 0.1% DMSO vehicle control. After 24 h of treatment, cells were harvested for determination of the percentage of infection by flow cytometry, while the culture supernatants were collected to determine the viral production.
HEK293T/17 or A549 cells were cultured in six-well plates under standard conditions until the cells reached 80% confluence. HEK293T/17 cells were infected with DENV 2, while A549 cells were infected with ZIKV Thai strain at MOI 5 for 2 h at 37 °C and 5% CO2 in culture medium without FBS. Mock infection was undertaken in parallel. […]
Mock- or viral-infected cells (with or without compound treatment) were harvested at an appropriate time point then incubated with 10% normal goat serum (NGS; Gibco Invitrogen) in PBS-immunofluorescence assay (IFA) buffer on ice for 30 min. […] The fluorescence signal was analyzed by flow cytometry on a BD FACalibur cytometer (Becton Dickinson, BD Biosciences, San Jose, CA, USA) using CellQuest™ software (Version 6). […]

Compound `C=C1CC[C@@H]2[C@](C)(COC(C)=O)[C@H](O)CC[C@@]2(C)[C@@H]1C/C=C1/C(=O)OC[C@H]1Oc1ccc([N+](=O)[O-])cc1OC` [ZAD-3] has a CC50 at 24 h [1] of 175 ± 7 µM, a CC50 at 24 h [2] of 186 ± 25 µM and a CC50 at 24 h [3] of 190 ± 22 µM. The CC50 at 24 h [4] was 201 ± 25 µM, the “number of ZIKV-infected cells (percentage of infection)” value (ZIKV) was “no significant effects” and the “percentage of DENV 2 infection” value (DENV 2) was “exception”.
`C=C1CC[C@@H]2[C@](C)(CO)[C@H](O)CC[C@@]2(C)[C@@H]1C/C=C1/C(=O)OC[C@@H]1Oc1ccc([N+](=O)[O-])cc1OC` [ZAD-2] showed a CC50 at 24 h [1] of 218 ± 16 µM, a CC50 at 24 h [2] of 179 ± 13 µM and a CC50 at 24 h [3] of 194 ± 17 µM. The CC50 at 24 h [4] was 197 ± 7 µM and the “number of ZIKV-infected cells (percentage of infection)” value (ZIKV) was “no significant effects”.
